Experimental data published in patent US12516289B2, “Methods of producing T memory stem cell populations” (The United States of America, as represented by the …, priority 2012, dated 2026).

Test system: CD45RO−CD62L+ naïve CD8+ T cells
Experiment: Activation of naïve CD8+ T cells in the presence of the GSK-3β inhibitor, phenotypic analysis
Type: cell-based, human
Experimental: Candidate human TSCM cells were generated by activating CD45RO^−CD62L^+ naïve CD8^+ T cells in the presence of the GSK-3β inhibitor TWS119. […] To determine whether the CD45RO^−CD62L^+ T cells generated in the presence of TWS119 were truly naïve cells or had acquired memory traits, phenotypic analysis was performed using established markers of T cell activation and differentiation (Appay et al., Cytometry A 73: 975-983 (2008)).

SMILES: Nc1cccc(-c2cc3c(Oc4cccc(O)c4)ncnc3[nH]2)c1 [TWS119, 3-[[6-(3-aminophenyl)-7H-pyrrolo[2,3-d]pyrimidin-4-yl]oxy]phenol]
- phenotype of T cells after culture (CD45RO/CD62L) (naïve CD8+ T cells activated in presence of TWS119, after 2 weeks): majority of T cells cultured with TWS119 retained a CD45RO^−CD62L^+ naïve-like phenotype
- expression of CD95 and IL-2Rβ by TWS119-generated naïve-like T cells (phenotypic analysis, compared with TN and memory T cells): expressed levels of CD95 and IL-2Rβ similar to those observed in memory T cells
